# Assay results taken from PubChem BioAssay (NCI).
#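 Five compound concentrations were applied to cells in 96-well plates for 48 hours; endpoints were derived by simple linear interpolation of the resulting dose-response curve. GI50 marks 50% less growth. TGI: total growth inhibition.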
# Key:
# Assay in all cases: NCI anticancer screen, dose series, 48 h
# UACC-62 melanoma = system: UACC-62 melanoma
# 786-0 renal = system: 786-0 renal
# COLO 205 colon = system: COLO 205 colon
# ACHN renal = system: ACHN renal
# HCT-116 colon = system: HCT-116 colon
# TK-10 renal = system: TK-10 renal
# HOP-92 NSCLC = system: HOP-92 NSCLC
# OVCAR-4 ovarian = system: OVCAR-4 ovarian
# SF-268 CNS = system: SF-268 CNS
# RXF 393 renal = system: RXF 393 renal
# HL-60(TB) leukemia = system: HL-60(TB) leukemia
# LOX IMVI melanoma = system: LOX IMVI melanoma
# CCRF-CEM leukemia = system: CCRF-CEM leukemia
# SW-620 colon = system: SW-620 colon
# K-562 leukemia = system: K-562 leukemia
# SK-MEL-5 melanoma = system: SK-MEL-5 melanoma
# UO-31 renal = system: UO-31 renal
# HCT-15 colon = system: HCT-15 colon
# M14 melanoma = system: M14 melanoma
# BT-549 breast = system: BT-549 breast
# A549 NSCLC = system: A549 NSCLC
# SF-539 CNS = system: SF-539 CNS
# A498 renal = system: A498 renal
# MALME-3M melanoma = system: MALME-3M melanoma
# IGROV1 ovarian = system: IGROV1 ovarian
# SR leukemia = system: SR leukemia
# SK-MEL-28 melanoma = system: SK-MEL-28 melanoma
# SK-OV-3 ovarian = system: SK-OV-3 ovarian
# RPMI-8226 leukemia = system: RPMI-8226 leukemia
# SN12C renal = system: SN12C renal
# OVCAR-3 ovarian = system: OVCAR-3 ovarian
# U251 CNS = system: U251 CNS
# MCF7 breast = system: MCF7 breast
# EKVX NSCLC = system: EKVX NSCLC
# NCI-H226 lung = system: NCI-H226 lung
# CAKI-1 renal = system: CAKI-1 renal
# SNB-75 CNS = system: SNB-75 CNS
# HOP-62 NSCLC = system: HOP-62 NSCLC
# DU-145 prostate = system: DU-145 prostate
# KM12 colon = system: KM12 colon
# MDA-MB-435 = system: MDA-MB-435
# T-47D breast = system: T-47D breast
# OVCAR-5 ovarian = system: OVCAR-5 ovarian
# HS 578T breast = system: HS 578T breast
# HT29 colon = system: HT29 colon
# NCI/ADR-RES ovarian = system: NCI/ADR-RES ovarian
# SF-295 CNS = system: SF-295 CNS
# NCI-H23 lung = system: NCI-H23 lung
# HCC-2998 colon = system: HCC-2998 colon
# NCI-H460 lung = system: NCI-H460 lung
# SNB-19 CNS = system: SNB-19 CNS
# OVCAR-8 ovarian = system: OVCAR-8 ovarian
# SK-MEL-2 melanoma = system: SK-MEL-2 melanoma
# UACC-257 melanoma = system: UACC-257 melanoma
# MOLT-4 leukemia = system: MOLT-4 leukemia
# MDA-MB-231 breast = system: MDA-MB-231 breast
# NCI-H522 lung = system: NCI-H522 lung
# PC-3 prostate = system: PC-3 prostate
structure (smiles),measurement,setting,value
COc1ccc(Oc2cc(NCCC(F)(F)F)c3ncc(-c4ccc(C(=O)NC5CC5)c(C)c4)n3n2)c(F)c1F,GI50,UACC-62 melanoma,0.681 µM
same,TGI,UACC-62 melanoma,85.5 µM
same,GI50,786-0 renal,1.05 µM
same,TGI,786-0 renal,> 52.3 µM
same,GI50,COLO 205 colon,< 0.0215 µM
same,TGI,COLO 205 colon,50.7 µM
same,GI50,ACHN renal,0.304 µM
same,TGI,ACHN renal,30.2 µM
same,GI50,HCT-116 colon,< 0.01 µM
same,TGI,HCT-116 colon,> 54.5 µM
same,GI50,TK-10 renal,4.61 µM
same,TGI,TK-10 renal,> 100 µM
same,GI50,HOP-92 NSCLC,4.54 µM
same,TGI,HOP-92 NSCLC,39.3 µM
same,GI50,OVCAR-4 ovarian,3.85 µM
same,TGI,OVCAR-4 ovarian,> 87.2 µM
same,GI50,SF-268 CNS,4.98 µM
same,TGI,SF-268 CNS,> 100 µM
same,GI50,RXF 393 renal,0.425 µM
same,TGI,RXF 393 renal,31.9 µM
same,GI50,HL-60(TB) leukemia,2.22 µM
same,TGI,HL-60(TB) leukemia,> 100 µM
same,GI50,LOX IMVI melanoma,0.125 µM
same,TGI,LOX IMVI melanoma,> 100 µM
same,TGI,CCRF-CEM leukemia,> 100 µM
same,GI50,SW-620 colon,0.125 µM
same,TGI,SW-620 colon,> 100 µM
same,GI50,K-562 leukemia,10.2 µM
same,TGI,K-562 leukemia,> 100 µM
same,GI50,SK-MEL-5 melanoma,4.75 µM
same,TGI,SK-MEL-5 melanoma,> 100 µM
same,GI50,UO-31 renal,0.355 µM
same,TGI,UO-31 renal,> 53.6 µM
same,GI50,HCT-15 colon,< 0.01 µM
same,TGI,HCT-15 colon,> 100 µM
same,GI50,M14 melanoma,0.339 µM
same,TGI,M14 melanoma,> 46.1 µM
same,GI50,BT-549 breast,2.14 µM
same,TGI,BT-549 breast,42.1 µM
same,GI50,A549 NSCLC,0.902 µM
same,TGI,A549 NSCLC,> 59.2 µM
same,GI50,SF-539 CNS,0.758 µM
same,TGI,SF-539 CNS,21.9 µM
same,TGI,A498 renal,25.7 µM
same,GI50,MALME-3M melanoma,2.08 µM
same,TGI,MALME-3M melanoma,54.8 µM
same,GI50,IGROV1 ovarian,0.484 µM
same,TGI,IGROV1 ovarian,> 68.3 µM
same,GI50,SR leukemia,0.224 µM
same,TGI,SR leukemia,64.3 µM
same,GI50,SK-MEL-28 melanoma,4.94 µM
same,TGI,SK-MEL-28 melanoma,59.1 µM
same,GI50,SK-OV-3 ovarian,0.399 µM
same,TGI,SK-OV-3 ovarian,27.2 µM
same,GI50,RPMI-8226 leukemia,0.656 µM
same,TGI,RPMI-8226 leukemia,> 100 µM
same,GI50,SN12C renal,0.527 µM
same,TGI,SN12C renal,> 100 µM
same,GI50,OVCAR-3 ovarian,8.67 µM
same,TGI,OVCAR-3 ovarian,> 91.9 µM
same,GI50,U251 CNS,0.597 µM
same,TGI,U251 CNS,57.8 µM
same,GI50,MCF7 breast,0.822 µM
same,TGI,MCF7 breast,> 100 µM
same,GI50,EKVX NSCLC,2.53 µM
same,TGI,EKVX NSCLC,> 100 µM
same,GI50,NCI-H226 lung,7.34 µM
same,TGI,NCI-H226 lung,68.8 µM
same,GI50,CAKI-1 renal,0.365 µM
same,TGI,CAKI-1 renal,> 100 µM
same,GI50,SNB-75 CNS,1.61 µM
same,TGI,SNB-75 CNS,31.1 µM
same,GI50,HOP-62 NSCLC,2.02 µM
same,TGI,HOP-62 NSCLC,37 µM
same,GI50,DU-145 prostate,0.423 µM
same,TGI,DU-145 prostate,> 100 µM
same,GI50,KM12 colon,1.44 µM
same,TGI,KM12 colon,> 100 µM
same,GI50,MDA-MB-435,2.64 µM
same,TGI,MDA-MB-435,> 100 µM
same,GI50,T-47D breast,1.9 µM
same,TGI,T-47D breast,> 92.7 µM
same,GI50,OVCAR-5 ovarian,24.9 µM
same,TGI,OVCAR-5 ovarian,> 100 µM
same,GI50,HS 578T breast,1 µM
same,TGI,HS 578T breast,50.6 µM
same,GI50,HT29 colon,0.506 µM
same,TGI,HT29 colon,> 100 µM
same,GI50,NCI/ADR-RES ovarian,0.198 µM
same,TGI,NCI/ADR-RES ovarian,> 80.6 µM
same,GI50,SF-295 CNS,0.638 µM
same,TGI,SF-295 CNS,> 65.3 µM
same,GI50,NCI-H23 lung,4.16 µM
same,TGI,NCI-H23 lung,> 100 µM
same,GI50,HCC-2998 colon,12.3 µM
same,TGI,HCC-2998 colon,> 100 µM
same,GI50,NCI-H460 lung,< 0.01 µM
same,TGI,NCI-H460 lung,> 54 µM
same,GI50,SNB-19 CNS,5.73 µM
same,TGI,SNB-19 CNS,> 72.4 µM
same,GI50,OVCAR-8 ovarian,0.0738 µM
same,TGI,OVCAR-8 ovarian,26.9 µM
same,GI50,SK-MEL-2 melanoma,0.552 µM
same,TGI,SK-MEL-2 melanoma,26.6 µM
same,GI50,UACC-257 melanoma,9.26 µM
same,TGI,UACC-257 melanoma,59.5 µM
same,GI50,MOLT-4 leukemia,2.03 µM
same,TGI,MOLT-4 leukemia,> 100 µM
same,GI50,MDA-MB-231 breast,2.16 µM
same,TGI,MDA-MB-231 breast,> 100 µM
same,GI50,NCI-H522 lung,0.381 µM
same,TGI,NCI-H522 lung,> 64.8 µM
same,GI50,PC-3 prostate,2.16 µM
same,TGI,PC-3 prostate,> 78.5 µM
